# Laboratory results as given in patent US20190274974A1, “Treatment of Pain Associated with Trigeminal Neuralgia” (priority 2011, published 2019).
# Entries after “also recorded” stand apart in the source; their conditions may differ.
# Assays:
# [1] = test system: CCI-ION rats; conditions: rat, in vivo; cited from earlier work
# [2] = test system: CCI-SN rats; assay type: in vivo, rat; conditions: rat, in vivo
# Description: Rats are anaesthetized with sodium pentobarbital (50 mg/kg i.p.). Unilateral CCI-SN is performed under direct visual control using a Zeiss microscope (10-25×) essentially as described by Bennett and Xie (G. J. Bennett et al., Pain, 33 (1988) 87-107).
# Mechanical sensitivity is determined with a graded series of von Frey filaments (Bioseb, Bordeaux, France; bending force: 0.07-60.0 g). The stimuli are applied within the SN territory (midplantar surface of the left hindpaw) three times at the nerve-injured side (ipsilateral, left) and then at the contralateral side for a total of 6 applications of each filament per rat, always beginning with the filament producing the lowest force. The von Frey filaments are applied at least 3 seconds after the rats returned to their initial resting state. For each session, the complete series of von Frey filaments is tested in increasing force order. The minimal force filament causing a hindpaw withdrawal response allows determination of the mechanical response threshold. The 60 g filament is the cut-off threshold.
# For studying the effects of acute treatment with tapentadol in CCI-SN rats, tapentadol (1, 3 and 10 mg/kg i.p.) or its vehicle (0.9% NaCl i. p.) was injected acutely 14 days after surgery. Sham-operated rats were treated in parallel. Pressure threshold values to trigger nocifensive responses to von Frey filaments application onto the plantar surface of ipsilateral hindpaw were determined at various times after acute injection of tapentadol or saline. Cut-off was fixed at 60 g pressure.
# For studying the effects of subchronic treatment with tapentadol in CCI-SN rats, starting on day 16 (Time=D) after surgery, they received i.p. injections of tapentadol (10 mg/kg, twice daily, at 10:00 AM and 6:00 PM) or saline (at the same day times as the drug) for four days. On the following day (day 20 after surgery), both tapentadol- and saline-pretreated CCI-SN rats were i.p. injected with Tapentadol (10 mg/kg; Time=0) and then subjected to von Frey filaments'test applied to ipsilateral hindpaw for determination of pressure threshold values at various times thereafter.
# In a second part of this study (B), unilateral chronic constriction injury to the sciatic nerve was performed two weeks before acute treatment with reboxetine (10 mg/kg i.p.), tapentadol (10 mg/kg i.p.) or saline (0.5 ml i.p./rat). Pressure threshold values were then determined at various times using von Frey filaments test applied to ipsilateral hindpaw.
# Morphine (1, 3 and 10 mg/kg s.c.) or its vehicle (0.9% NaCl) was injected acutely 14 days after CCI-SN surgery. Sham-operated rats were treated in parallel. Pressure threshold values to trigger nocifensive responses to von Frey filaments application onto the plantar surface of ipsilateral hindpaw were determined at various times after acute injection of morphine or saline.
# 14 days after CCI-SN surgery, rats were injected with reboxetine (10 mg/kg i.p.) or its vehicle (0.9% NaCl) followed, 15 min later, by morphine (1 mg/kg s.c.) or its vehicle (0.9% NaCl) and subjected to von Frey filament tests for the following 4 hours. Sham-operated rats were treated in parallel.
# The results are depicted in FIG. 11.
# [3] = test system: CCI-SN rats; conditions: rat, in vivo; cited from earlier work
# [4] = test system: CCI-ION rats; assay type: in vivo, rat; conditions: rat, in vivo
# Description: Rats are anaesthetized with sodium pentobarbital (50 mg/kg i.p.). Unilateral CCI-ION is performed under direct visual control using a Zeiss microscope (10-25×) essentially as described by Vos et al (Vos B P, Strassman A M, Maciewicz R J (1994), J. Neurosci. 14: 2708-2723). Briefly, the head is fixed in a Horsley-Clarke stereotaxic frame and a midline scalp incision is made, exposing skull and nasal bone. The edge of the orbit, formed by the maxillary, frontal, lacrimal, and zygomatic bones, is dissected free. The orbital contents are gently deflected to give access to the infraorbital nerve which is dissected free at its most rostral extent in the orbital cavity, just caudal to the infraorbital foramen. Only 5 mm of the nerve can be freed (Vos et al.), providing the space for placement of two chromic catgut (5-0) ligations tied loosely (with about 2 mm spacing) around it. […] Finally, scalp incision is closed using silk sutures (4-0). In sham-operated rats, the ION is exposed using the […] procedure, but is not ligated.
# Mechanical sensitivity is determined with a graded series of eleven von Frey filaments (Bioseb, Bordeaux, France). The filaments produce a bending force of 0.07, 0.16, 0.40, 0.60, 1.00, 2.00, 4.00, 6.00, 8.00, 10.00 and 12.00 g, respectively. The stimuli are applied within the ION territory (vibrissae pad) three times at the nerve-injured side and then at the contralateral side for a total of 6 applications of each filament per rat, always beginning with the filament producing the lowest force. The von Frey filaments are applied at least 3 seconds after the rats returned to their initial resting state. For each session, the complete series of von Frey filaments is tested in increasing force order.
# The latter responses represent the highest scores in the rank-ordered response scoring system initially described by Vos et al. The minimal force filament causing at least one among these responses (to at least 2 out of the 3 an each side) allows determination of the mechanical response threshold. The 12.00 g filament is the cut-off threshold (no tissue-injury occurs at this pressing force).
# For studying the effects of acute treatment with tapentadol in CCI-ION rats, tapentadol (1 or 10 mg/kg i.p.) or its vehicle (0.9% NaCl i. p.) was injected acutely 14 days after surgery. Sham-operated rats were treated in parallel. Pressure threshold values to trigger nocifensive responses to von Frey filaments application onto the plantar surface of ipsilateral hindpaw were determined at various times after acute injection of tapentadol or saline. Cut-off was fixed at 12 g pressure.
# For studying the effects of subchronic treatment with tapentadol in CCI-ION rats, starting on day 16 (Time=D) after surgery, they received i.p. injections of tapentadol (10 mg/kg, twice daily, at 10:00 AM and 6:00 PM) or saline (at the same day times as the drug) for four days. On the following day (day 20 after surgery), both tapentadol- and saline-pretreated CCI-SN rats were i.p. injected with Tapentadol (10 mg/kg; Time=0) and then subjected to von Frey filaments' test applied to ipsilateral hindpaw for determination of pressure threshold values at various times thereafter.
# 14 days after CCI-ION surgery, rats were injected with reboxetine (10 mg/kg i.p.) or its vehicle (0.9% NaCl) followed, 15 min later, by morphine (3 mg/kg s.c.) or its vehicle (0.9% NaCl) and subjected to von Frey filament tests for the following 4 hours. Sham-operated rats were treated in parallel.
# [5] = test system: BDNF-induced allodynia; test: Mechanical allodynia induced by intrathecal administration of BDNF in healthy rats (von Frey filaments test); assay type: in vivo, rat
# Description: In a first part of this study, BDNF (0.3 ng in 25 μl of saline per rat) or saline (25 μl) was injected intrathecally in adult male rats slightly anesthetized with isoflurane (according to Mestre et al. (1994), J. Pharmacol. Toxicol. Meth., 32, 197-200), and animals were subjected to von Frey filaments test applied to hindpaws at various times thereafter.
# In a second part of this study, tapentadol (3 or 10 mg/kg i.p.) or saline was administered to rats on the 7th day (Time=0 on abscissa) after intrathecal injection of BDNF (Time=C) as described above. Pressure threshold values were determined using von Frey filaments test applied to hindpaws.
# In a first part of this study (A), reboxetine (10 mg/kg i.p.; mesylate, Ascent Scientific, Bristol, UK), tapentadol (10 mg/kg i.p.) or saline (0.5 ml i.p./rat) was injected on the 7th day after intrathecal administration of BDNF (0.3 ng in 25 μl of saline per rat). Pressure threshold values were determined at various times thereafter using von Frey filaments test applied to hindpaws.
# [6] = test system: BDNF-induced allodynia; test: as above; assay type: in vivo, rat; conditions: BDNF 0.3 ng i.t.; up to 11 days; data not shown
molecule,measurement,setting,value
CN1CC[C@]23c4c5ccc(O)c4O[C@H]2[C@@H](O)C=C[C@H]3[C@H]1C5 [morphine],effect on mechanical allodynia generated by CCI-ION,[1],ineffective
same,anti-allodynic effect (pressure threshold to trigger hindpaw withdrawal),[2],strongly anti-allodynic
same,increase in pressure threshold values,[2],only discrete increases
same,persistence of full reversal,[2],at least one hour
same,reversal of CCI-SN-induced mechanical allodynia,[2],fully reversed; also recorded: not completely reversed
same,time after injection at which full reversal was reached,[2],30 min
same,effect on mechanical allodynia generated by CCI-SN,[3],significantly attenuate
same,anti-allodynic effect,[4],only a discrete effect
same,maximal increase in pressure threshold value as share of that determined in healthy intact rats,[4],20%
"CCOc1ccccc1OC(c1ccccc1)C1CNCCO1 (centres unmarked) [reboxetine, reference compound]",anti-allodynic effect compared to tapentadol (10 mg/kg i.p.),[2],developed more slowly and was much less pronounced
same,increase in pressure threshold values,[2],only discrete increases
same,reversal of CCI-SN-induced decrease in pressure threshold values,[2],significant but only partial reversal
same,maximal increase in pressure threshold values relative to that caused by 10 mg/kg i.p. of tapentadol,"[5]; rat, in vivo",only one third
same,reversal of mechanical allodynia caused by intrathecal BDNF,"[5]; rat, in vivo",significant but partial reversal
same,time at which the maximal increase in pressure threshold was reached,"[5]; rat, in vivo",45 min
same,anti-allodynic effect,[4],completely inactive
NC1=N[C@H](O)[C@H]2[C@H]3O[C@]4(O)O[C@@H]([C@@H](O)[C@@]2(N1)[C@@H]4O)[C@]3(O)CO [tetrodotoxin],effect on mechanical allodynia generated by CCI-ION,[1],ineffective
same,effect on mechanical allodynia generated by CCI-SN,[3],significantly attenuate
"BDNF: neurotrophic factor injected intrathecally (0.3 ng per rat) to induce mechanical allodynia (protein, UniProt P23560 19-247, looked up) Neurotrophic factor BDNF …: APMKEANIRGQGGLAYPGVRTHGTLESVNGPKAGSRGLTSLADTFEHVIEELLDEDQKVRPNEENNKDADLYTSRVMLSSQVPLEPPLLFLLEEYKNYLDAANMSMRVRRHSDPARRGELSVCDSISEWVTAADKKTAVDMSGGTVTVLEKVPVSKGQLKQYFYETKCNPMGYTKEGCRGIDKRHWNSQCRTTQSYVRALTMDSKKRIGWRFIRIDTSCVCTLTIKRGR",hindpaw pressure threshold values from day 4 to day 8 after injection,[5]; BDNF 0.3 ng i.t.,as low as those previously determined two weeks after surgery in CCI-SN rats
same,hindpaw pressure threshold values on the 11th day relative to untreated healthy rats,[5]; BDNF 0.3 ng i.t.,only half
same,pressure threshold value to trigger hindpaw withdrawal after intrathecal injection,"[5]; BDNF 0.3 ng i.t., single injection, healthy rats",progressive and long lasting decrease
same,pressure threshold value within the vibrissal pad,[6],~12 g
same,"pressure threshold values, von Frey filaments applied within the vibrissal pad",[6],not significantly modified
